Where two headings read alike, the source gives them in different places.
Columns and labels:
[1] = tested on: disseminated model of AML; test: disseminated model of AML, combination with cytarabine; type: in vivo; conditions: in combination therapy with cytarabine
[2] = pharmacologic parameters of onvansertib; type: in vivo
[3] = concentration for anti-tumoral activity in mice; type: in vivo
Description: (§1) In Table 1, IC50 is shown as mean±SEM (standard error of mean).

[4] = tested on: CYP2C8, CYP2C9, CYP2C19, CYP2D6, CYP3A4; test: CYP inhibition in human liver microsomes, summary over isoforms; type: in vitro ADME; conditions: range over isoforms
Description: as §1

[5] = target: panel of 63 kinases other than PLK1; test: kinase panel selectivity (63 kinases); type: biochemical
AML cell lines = test: cell proliferation in AML cell lines; type: cell-based
PLK1 = PLK1 (Homo sapiens, UniProt P53350); test: biochemical assays, panel of 296 kinases; conditions: including other PLK members
SUM159 xenografts = test: SUM159 mouse xenograft; type: in vivo; conditions: at 21 days; onvansertib 120 mg/Kg P.O. day 1 and 2 weekly or paclitaxel 10 mg/Kg I.P. day 1 weekly
clinical = conditions: human, in vivo, po
patients with mCRPC = test: onvansertib plus abiraterone in patients with mCRPC (NCT03414034); type: in vivo, human
[6] = tested on: HT29 human colon adenocarcinoma xenografts; test: HT29 xenograft, combination with irinotecan; type: in vivo; conditions: in combination with irinotecan
CYP1A2 = target: T1, CYP1A2 (Homo sapiens, UniProt P05177); test: CYP inhibition in human liver microsomes; type: in vitro ADME
T1 construct: was investigated using human liver microsomes; from tissue; host or cells: human liver microsomes
T1 sequence (P05177 1-516): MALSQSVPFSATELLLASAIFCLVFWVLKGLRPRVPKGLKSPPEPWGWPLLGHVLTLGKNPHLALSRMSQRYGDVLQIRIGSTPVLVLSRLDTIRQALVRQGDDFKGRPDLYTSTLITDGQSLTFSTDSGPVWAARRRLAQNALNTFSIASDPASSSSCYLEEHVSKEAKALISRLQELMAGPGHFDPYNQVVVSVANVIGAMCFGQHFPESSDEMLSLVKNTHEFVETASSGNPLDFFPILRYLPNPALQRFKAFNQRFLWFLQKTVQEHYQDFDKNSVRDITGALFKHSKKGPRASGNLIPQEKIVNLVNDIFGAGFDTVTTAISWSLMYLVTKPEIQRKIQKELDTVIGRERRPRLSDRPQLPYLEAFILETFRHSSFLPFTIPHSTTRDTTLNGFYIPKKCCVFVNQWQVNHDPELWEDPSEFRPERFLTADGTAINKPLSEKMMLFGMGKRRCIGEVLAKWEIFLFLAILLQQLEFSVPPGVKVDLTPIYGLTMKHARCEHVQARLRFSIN
Description: as §1

[7] = tested on: metastatic breast cancer patients; conditions: cited from earlier work
patients with AML [8] = conditions: in combination with LDAC; cited from earlier work
patients with AML [9] = conditions: intravenously in combination with LDAC; treatment-naïve AML; cited from earlier work
[10] = tested on: patients with metastatic TNBC; conditions: with chemotherapy vs chemotherapy and placebo; tumors strongly positive for PD-L1 (CPS>10); cited from earlier work

Sequence of PLK1 (P53350 whole entry): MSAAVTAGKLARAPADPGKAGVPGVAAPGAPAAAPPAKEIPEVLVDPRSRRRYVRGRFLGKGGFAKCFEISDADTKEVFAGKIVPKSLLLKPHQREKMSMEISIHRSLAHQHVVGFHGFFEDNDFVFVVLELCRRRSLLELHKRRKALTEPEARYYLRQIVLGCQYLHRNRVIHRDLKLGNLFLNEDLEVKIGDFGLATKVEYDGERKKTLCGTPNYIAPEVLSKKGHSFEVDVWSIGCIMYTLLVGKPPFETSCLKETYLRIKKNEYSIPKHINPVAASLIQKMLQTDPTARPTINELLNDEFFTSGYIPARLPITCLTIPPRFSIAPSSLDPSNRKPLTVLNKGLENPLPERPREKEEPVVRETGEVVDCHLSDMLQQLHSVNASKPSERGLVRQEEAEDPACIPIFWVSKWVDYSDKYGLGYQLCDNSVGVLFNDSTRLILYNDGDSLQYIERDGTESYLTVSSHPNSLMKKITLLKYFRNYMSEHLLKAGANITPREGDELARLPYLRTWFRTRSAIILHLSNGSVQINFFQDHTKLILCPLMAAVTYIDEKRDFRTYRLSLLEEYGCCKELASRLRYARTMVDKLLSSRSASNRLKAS

CN1CCN(c2ccc(OC(F)(F)F)c(Nc3ncc4c(n3)-c3c(c(C(N)=O)nn3CCO)CC4)c2)CC1 [onvansertib, 1-(2-hydroxyethyl)-8-{[5-(4-methylpiperazin-1-yl)-2-(trifluoromethoxy)phenyl]amino}-4,5-dihydro-1H-pyrazolo[4,3-h]quinazoline-3-carboxamide]
survival of animals [1]: prolonged survival
half-life ([2]; in vivo): 24 h
oral bioavailability ([2]; rodent and nonrodent species): good oral bioavailability
concentrations relevant to achieve significant anti-tumoral activity [3]: ~1 µM
IC50 [4]: 20 to 66 µM
IC50 [5]: > 0.5 µM
inhibition of cell proliferation (AML cell lines): nanomolar concentrations
specificity for PLK1 among a panel of 296 kinases (PLK1): high specificity
tumor growth inhibition, difference compared to controls (SUM159 xenografts): −0.406
half-life (clinical): 20 to 30 h
evaluable patients who met the primary efficacy endpoint (patients with mCRPC; 12 mg/m^2, 14+7 regimen with abiraterone, 5 evaluable): 60%
hematological toxicities reported (patients with mCRPC; 12 mg/m^2 QD 14+7 regimen with abiraterone QD, 9 patients): no Grade 2 or higher hematological toxicities
evaluable patients who met the primary efficacy endpoint (patients with mCRPC; 18 mg/m^2, 5+9 regimen, 10 evaluable): 30%
tumor regression compared to each agent alone [6]: enhanced tumor regression
inhibitory effects against CYP1A2 (CYP1A2): No significant inhibitory effects

CC(=O)O[C@H]1C(=O)[C@@]2(C)[C@H]([C@H](OC(=O)c3ccccc3)[C@]3(O)C[C@H](OC(=O)[C@H](O)[C@@H](NC(=O)c4ccccc4)c4ccccc4)C(C)=C1C3(C)C)[C@]1(OC(C)=O)CO[C@@H]1C[C@@H]2O [paclitaxel, 5β,20-Epoxy-1,2α,4,7β,10β,13α-hexahydroxytax-11-en-9-one 4,10-diacetate 2-benzoate 13-ester with (2R,3S)-N-benzoyl-3-phenylisoserine]
tumor growth inhibition, difference compared to controls (SUM159 xenografts): −0.337
Grade 3 anemia ([7]; 80 mg/m^2 weekly, 212 patients): 9%
Grade 3 or 4 neutropenia ([7]; 80 mg/m^2 weekly, 212 patients): 15%
responses ([7]; 45 assessable patients with prior taxane therapy): 15.6%
responses ([7]; 131 assessable patients with prior anthracycline therapy): 17.6%
overall response rate ([7]; 177 assessable patients): 21.5%
median time to progression ([7]; assessable patients): 142 days
grade 3 neuropathy ([7]; in vivo): 9%
grade 4 neuropathy ([7]; in vivo): no patient
median number of courses of therapy until development of grade 2 or 3 neuropathy ([7]; in vivo): five
median time to progression ([7]; no prior chemotherapy for metastatic disease): 174 days
median time to progression ([7]; one prior regimen): 140 days
median time to progression ([7]; two prior regimens): 85 days

CC[C@@H]1C(=O)N(C)c2cnc(Nc3ccc(C(=O)N[C@H]4CC[C@H](N5CCN(CC6CC6)CC5)CC4)cc3OC)nc2N1C(C)C [volasertib]
benefit of the combination (patients with AML [8]): no benefit
risk of severe infections (patients with AML [8]): increased risk of severe infections
OS compared with LDAC alone (patients with AML [9]): significant increase in OS

Pembrolizumab: a monoclonal antibody directed against the PD-1 receptor
reduction of the risk of death [10]: 27%

— patent US20260076970A1, “CANCER TREATMENT USING MTDP INHIBITORS AND PLK1 INHIBITORS” (Cardiff Oncology, Inc., priority 2022, published 2026)
